In patent US20060148714A1, “Therapeutic peptide-based constructs” (priority 1999, published 2006):
Converted amounts (≈) assume the structure as drawn. Marks after values point to notes of the source that are not given here. Where a SMILES comes first, the peptide text is derived from it. Where no end group is shown, it is not given here. [ ]: non-standard residue; d: D form. The star is where a group is joined. Benzoyl(4-Ph) = O=C(c1ccc(-c2ccccc2)cc1)*; Benzoyl(2-Ph) = O=C(c1ccccc1-c1ccccc1)*; d1Nal = N[C@H](Cc1cccc2ccccc12)C(=O)O; Aib = CC(C)(N)C(=O)O

Experiments:
[1] = system: Factor Xa neutralization by ATIII/heparin complexes; experiment: Chromostrate heparin anti-Factor Xa assay (heparin neutralization); assay type: biochemical; conditions: absorbance at 405 nm
Experimental: A Chromostrate™ assay was used to determine the effect of peptide-based constructs, including derivatized constructs, and the effect protamine sulfate (as a positive control) on Factor Xa neutralization by ATIII/heparin complexes. The assay was conducted using a Chromostrate™ heparin anti-Factor Xa assay kit (Organon Teknika Corp., Durham, N.C.). Heparin concentration was varied so that a heparin standard curve was generated. The assay measured the potentiating effect of heparin on anti-Xa activity in vitro. Solution containing heparin is incubated in the presence of ATIII with an excess of Factor Xa, forming an ATIII-Heparin-Xa complex. The remaining Xa catalyzes the release of p-nitroaniline (pNA) from the chromogenic substrate. The release of p-nitroaniline is measured at 405 nm. The absorbance obtained in inversely porportional to the concentration of heparin in the sample.
Reagents for the assay are prepared as follows. Heparin, peptide-based constructs and protamine sulfate stocks are made in saline. Stock solutions are approximately 1 mg/mL=1 μg/μL. Factor Xa reagent and substrate reagent are reconstituted with 2.0 mL purified water. Antithrombin III (ATIII) reagent is reconstituted with 1.0 mL purified water. The assay is performed in 96 well microtiter plates. Assay components are added to the microtiter wells as follows: 12.5 μl of heparin (from 0 to 10 U/mL), 25 μl of construct or protamine sulfate, 12.5 μL of ATIII (0.5 PEU/mL), 25 μL of bovine Factor Xa (14 nKat/mL), 25 μL substrate (3 μmoles/mL). The reaction is allowed to proceed for 20 minutes and then 25 μL of 0.1 M acetic acid is added. The color reaction is quantitated on a microplate reader at 405 nm. Constructs that neutralize heparin show an increase in the absorbance at 405 nm. Protamine is used as a positive control and its activity is designated as 100%. The percent (%) heparin neutralization for each peptide construct is calculated relative to the neutralization by protamine (100%), and shown in Table IV.

[2] = system: E. coli (J5 and 0111 B4), Staphylococcus aureus and Candida albicans; experiment: Broth and/or radial diffusion antimicrobial assays; assay type: cell-based
Source text: Assays useful for testing a variety of biological activities of BPI protein products, including BPI-derived peptides, are described in co-owned U.S. Pat. Nos. 5,733,872; 5,763,567; 5,652,332; and 5,856,438 and corresponding PCT Publication Nos. WO 94/20532 (PCT/US94/02465) and WO 95/19372 (PCT/US94/10427) and U.S. Pat. No. 5,858,974 and corresponding PCT Publications Nos. WO 96/08509 (PCT/US95/09262) and WO 97/04008 (PCT/US96/03845), incorporated herein by reference. These activities include antimicrobial (including antibacterial and antifungal), LPS binding, LPS neutralization and additional assays of heparin binding as well as heparin neutralization.

LPS = experiment: RAW cell assay of LPS neutralization; assay type: cell-based
[3] = system: human umbilical vein endothelial cells (HUVEC); assay type: cell-based; conditions: 72 h
Experimental: Briefly, human umbilical vein endothelial cells (HUVEC) were cultured in EGM-2 medium (Clonetics Corp., San Diego, Calif.), harvested and plated onto a 96-well culture plate. After 24 hours of quiescence, the cells were co-cultured with various peptide-based constricts in the presence of growth factors for 72 hours to test their activity. Cell proliferation was quantitated by tritiated thymidine incorporation into DNA and was expressed in counts per minute (cpm).
Details of the experimental procedures were as follows: HUVEC cells were cultured in EGM-2 media from Clonetics Corp., a subsidiary of BioWhittaker, Inc., San Diego, Calif. [EGM-2 is Endothelial Cell Basal Medium-2 (EMB-2) supplemented with growth factors (hFGF-B, VEGF, IGF-1, hEGF) ascorbic acid, heparin, GA-1000 and 2% FBS), in T75 flasks until confluent (˜4-7 days). Cells were harvested by trypsinizing the cells using 0.025% trypsin/EDTA for 5 minutes. To stop the reaction, 2-5% FBS was added. The cells were centrifuged and washed 3 times using Hank's Balanced Salt Solution (HBSS) or Dulbecco's Phosphate Buffered Saline D-PBS. The pellet was then resuspended in EBM-2 supplemented with 0.1% FBS and GA-1000 was used. The cells were counted and a cell suspension was prepared at 2×10^5/mL in EBM-2 with 0.1% FBS; cells were dispensed into a 96-well flat bottomed culture plate at 0.1 mL/well (total: ˜20,000 cells/well in 0.1% FBS-EBM-2). Incubation continued at 37° C. in 5% CO2 for 20-24 hours. The next day peptide-based constructs were prepared for testing in a 96 well plate. The supernatant was aspirated from the cell-well, replaced with EBM-2 or the testing reagent at 20 μL/well. Then, 180 μL/well of 1.12% FBS-GFS were added to make a final concentration of 1% FBS-GFS in EBM-2. This aspiration and addition was done well-by-well. ^3H-thymidine (100 μCi/mL) was added at 10 μL/well (1 μCi/well, final). Incubation continued at 37° C., 5% CO2 for 72 hours. To harvest the plate, the supernatant was aspirated off from the cell-well and then 75 μL-100 μL/well of 0.025% trypsin-EDTA was added. After incubation for 8-10 minutes at room temperature in the hood, the cells were checked and 100 μL/well of 2-5% FBS-PBS was added to stop the reaction. The plate was then harvested, dried and counted using an Inotech cell harvester (Inotech Biosystems, INB-384, Sample Processing and Filter Counting System, Lansing, Mich.).

Compound	Assay A: percent heparin neutralization relative to protamine (100%) [1]	Assay B: percent heparin neutralization relative to protamine (100%) [1] [%]	antimicrobial activity [2]	LPS neutralization activity (LPS)	IC50 [3] [µg/mL]
k-l-f-r-(biphenyl-a)-q-a-k [XMP.725]	3.8%	1.0	–	–	–
k-l-f-k-(biphenyl-a)-q-a-k-(biphenyl-a)-k-G [XMP.728]	106%	87	–	–	–
k-a-f-r-(naph-a)-q-a-k-(naph-a) ([dK][dA][dF][dR][dNal][dQ][dA][dK][dNal]; not fully specified; printed as k-a-f-r-(naph-a)-q-a-k-(naph-a)) [XMP.760]	53%	44	highest antimicrobial activities	–	–
k-a-f-k-(naph-a)-q-a-k-(naph-a)-k-G ([dK][dA][dF][dK][dNal][dQ][dA][dK][dNal][dK]G; not fully specified; printed as k-a-f-k-(naph-a)-q-a-k-(naph-a)-k-G) [XMP.764]	75%	60	highest antimicrobial activities	–	–
CC[C@@H](C)[C@@H](NC(=O)[C@@H](CO)NC(=O)CNC(=O)[C@@H](CCCCN)NC(=O)[C@@H](Cc1cccc2ccccc12)NC(=O)[C@@H](CCCCN)NC(=O)[C@@H](C)NC(=O)[C@@H](CCC(N)=O)NC(=O)[C@@H](Cc1cccc2ccccc12)NC(=O)[C@@H](CCCNC(=N)N)NC(=O)[C@@H](Cc1ccccc1)NC(=O)[C@@H](CC(C)C)NC(=O)[C@H](N)CCCCN)C(N)=O [XMP.625, k-l-f-r-(naph-a)-q-a-k-(naph-a)-k-g-s-i] (H-[dK][dL][dF][dR][d1Nal][dQ][dA][dK][d1Nal][dK]G[dS][dI]-NH2)	79%	125	–	showed activity	–
4-biphenylcarbonyl-k-l-f-k-(naph-a)-q-a-k ({Benzoyl(4-Ph)}-[dK][dL][dF][dK][dNal][dQ][dA][dK]; not fully specified; printed as 4-biphenylcarbonyl-k-l-f-k-(naph-a)-q-a-k) [XMP.767]	63%*	58	highest activities	–	–
4-biphenylcarbonyl-k-l-f-k-(biphenyl-a)-q-a-k [XMP.769]	64%	46	–	–	–
k-(aminoisobutyric acid)-f-r-(naph-a)-q-a-k-(naph-a) ([dK][Aib][dF][dR]A[dQ][dA][dK]A; not fully specified (residues 5, 9)) [XMP.778]	54%	49	highest antimicrobial activities	–	–
CC(C)C[C@@H](NC(=O)[C@@H](CCCCN)NC(=O)c1ccccc1-c1ccccc1)C(=O)N[C@H](Cc1ccccc1)C(=O)N[C@H](CCCNC(=N)N)C(=O)N[C@H](Cc1cccc2ccccc12)C(=O)N[C@H](CCC(N)=O)C(=O)N[C@H](C)C(=O)N[C@H](CCCCN)C(N)=O [XMP.661, 2-biphenylcarbonyl-k-l-f-r-(naph-a)-q-a-k] ({Benzoyl(2-Ph)}-[dK][dL][dF][dR][d1Nal][dQ][dA][dK]-NH2)	30%	9	–	–	–
4-biphenylcarbonyl-k-l-f-r-(naph-a)-q-a-k ({Benzoyl(4-Ph)}-[dK][dL][dF][dR][dNal][dQ][dA][dK]; not fully specified; printed as 4-biphenylcarbonyl-k-l-f-r-(naph-a)-q-a-k) [XMP.664]	50%	16	highest activities	–	–
1-naphthylacetyl-k-l-f-r-(naph-a)-q-a-k ({1‑naphthylacetyl}-[dK][dL][dF][dR][dNal][dQ][dA][dK]; not fully specified; printed as 1-naphthylacetyl-k-l-f-r-(naph-a)-q-a-k) [XMP.671]	32%	15	–	–	–
k-l-f-r-(biphenyl-A)-q-a-k [XMP.685]	3.4%	0.2	–	–	–
4-biphenylcarbonyl-k-l-f-r-(biphenyl-a)-q-a-k [XMP.768]	34%	10	–	–	–
CC[C@@H](C)[C@@H](NC(=O)[C@@H](CCCCN)NC(=O)[C@H](NC(=O)CNC(=O)[C@@H](CCCCN)NC(=O)[C@@H](Cc1cccc2ccccc12)NC(=O)[C@@H](CCCCN)NC(=O)[C@@H](C)NC(=O)[C@@H](CCC(N)=O)NC(=O)[C@@H](Cc1cccc2ccccc12)NC(=O)[C@@H](CCCNC(=N)N)NC(=O)[C@@H](Cc1ccccc1)NC(=O)[C@@H](CC(C)C)NC(=O)[C@H](N)CCCCN)[C@H](C)CC)C(N)=O [XMP.656, k-l-f-r-(naph-a)-q-a-k-(naph-a)-k-g-i-k-i] (H-[dK][dL][dF][dR][d1Nal][dQ][dA][dK][d1Nal][dK]G[dI][dK][dI]-NH2; N-terminus assumed)	74%	65	highest antimicrobial activities	–	2.6 ± 0.8 (≈ 1.43 µM)
k-l-f-k-(naph-a)-q-a-k-(naph-a) ([dK][dL][dF][dK][dNal][dQ][dA][dK][dNal]; not fully specified; printed as k-l-f-k-(naph-a)-q-a-k-(naph-a)) [XMP.776]	74%	75	highest antimicrobial activities	–	–
